Test results published in ChEMBL document CHEMBL3608207, “Synthesis, characterization, evaluation and molecular dynamics studies of 5, 6-diphenyl-1,2,4-triazin-3(2H)-one derivatives bearing 5-substituted 1,3,4-oxadiazole as potential anti-inflammatory and analgesic agents” (Eur J Med Chem, 2015).

What was measured:
Rattus norvegicus [1] = assay: Anti-inflammatory activity in rat model of acute inflammation assessed as inhibition of carrageenan-induced paw oedema dosed at equimolar oral dose relative to 10 mg/kg, po indomethacin dosed 1 hr before carrageenan injection and measured 2 hrs after carrageenan injection; format: functional
Rattus norvegicus [2] = assay: Anti-inflammatory activity in rat model of acute inflammation assessed as inhibition of carrageenan-induced paw oedema dosed at equimolar oral dose relative to 10 mg/kg, po indomethacin dosed 1 hr before carrageenan injection and measured 3 hrs after carrageenan injection; format: functional
Rattus norvegicus [3] = assay: Anti-inflammatory activity in rat model of acute inflammation assessed as inhibition of carrageenan-induced paw oedema dosed at equimolar oral dose relative to 10 mg/kg, po indomethacin dosed 1 hr before carrageenan injection and measured 4 hrs after carrageenan injection; format: functional
Rattus norvegicus [4] = assay: Anti-inflammatory activity in rat model of acute inflammation assessed as inhibition of carrageenan-induced paw oedema dosed at equimolar oral dose relative to 10 mg/kg, po indomethacin dosed 1 hr before carrageenan injection and measured 6 hrs after carrageenan injection; format: functional
Rattus norvegicus [5] = assay: Anti-inflammatory activity in rat model of acute inflammation assessed as inhibition of carrageenan-induced paw oedema dosed at equimolar oral dose relative to 10 mg/kg, po indomethacin dosed 1 hr before carrageenan injection and measured 5 hrs after carrageenan injection relative to 10 mg/kg, po indomethacin; format: functional
Rattus norvegicus [6] = assay: Anti-inflammatory activity in rat assessed as inhibition of arachidonic acid-induced paw edema dosed at equimolar oral dose relative to 10 mg/kg, po indomethacin dosed 30 mins before arachidonic acid injection and measured 1 hr after arachidonic acid injection; format: functional
Rattus norvegicus [7] = assay: Anti-inflammatory activity in rat Freund's adjuvant induced arthritis model of chronic inflammation assessed as inhibition of right hind paw swelling at equimolar oral dose relative to 10 mg/kg, po indomethacin dosed after 14 days from day of adjuvant injection until day 21 and measured on day 6; format: functional
Rattus norvegicus [8] = assay: Anti-inflammatory activity in rat Freund's adjuvant induced arthritis model of chronic inflammation assessed as inhibition of right hind paw swelling at equimolar oral dose relative to 10 mg/kg, po indomethacin dosed after 14 days from day of adjuvant injection until day 21 and measured on day 12; format: functional
Rattus norvegicus [9] = assay: Anti-inflammatory activity in rat Freund's adjuvant induced arthritis model of chronic inflammation assessed as inhibition of right hind paw swelling at equimolar oral dose relative to 10 mg/kg, po indomethacin dosed after 14 days from day of adjuvant injection until day 21 and measured on day 15; format: functional
Rattus norvegicus [10] = assay: Anti-inflammatory activity in rat Freund's adjuvant induced arthritis model of chronic inflammation assessed as inhibition of right hind paw swelling at equimolar oral dose relative to 10 mg/kg, po indomethacin dosed after 14 days from day of adjuvant injection until day 21 and measured on day 21; format: functional
Rattus norvegicus [11] = assay: Hepato-toxicity in rat Freund's adjuvant induced arthritis model of chronic inflammation assessed as assessed as SGOT level at equimolar oral dose relative to 10 mg/kg, po indomethacin dosed after 14 days from day of adjuvant injection until day 21 and measured on day 21 (reference value: 92.48 +/- 7.8 U/mL); format: organism-based; details: in vivo, 336 h
Rattus norvegicus [12] = assay: Hepato-toxicity in rat Freund's adjuvant induced arthritis model of chronic inflammation assessed as assessed as alkaline phosphatase level at equimolar oral dose relative to 10 mg/kg, po indomethacin dosed after 14 days from day of adjuvant injection until day 21 and measured on day 21 (reference value: 17.82 +/- 1.2 U); format: organism-based; details: in vivo, 336 h
Rattus norvegicus [13] = assay: Renal toxicity in rat Freund's adjuvant induced arthritis model of chronic inflammation assessed as assessed as total albumin level at equimolar oral dose relative to 10 mg/kg, po indomethacin dosed after 14 days from day of adjuvant injection until day 21 and measured on day 21 (reference value: 1.77 +/- 0.12 g/dL); format: organism-based; details: in vivo, 336 h
Rattus norvegicus [14] = assay: Renal toxicity in rat Freund's adjuvant induced arthritis model of chronic inflammation assessed as assessed as blood urea nitrogen level at equimolar oral dose relative to 10 mg/kg, po indomethacin dosed after 14 days from day of adjuvant injection until day 21 and measured on day 21 (reference value: 23.48 +/- 1.8 mg/dL); format: organism-based; details: in vivo, 336 h
Mus musculus [15] = assay: Analgesic activity in Swiss albino mouse assessed as reduction in number of writhing episodes at equimolar oral dose relative to 10 mg/kg, po indomethacin measured 30 mins following acetic acid injection; format: functional
Mus musculus [16] = assay: Analgesic activity in Swiss albino mouse assessed as reduction in formalin-induced paw licking by measuring time spent on licking during phase-1 at equimolar oral dose relative to 10 mg/kg, po indomethacin dosed 1 hr before formalin challenge and measured 30 mins after formalin injection; format: functional
Mus musculus [17] = assay: Analgesic activity in Swiss albino mouse assessed as reduction in formalin-induced paw licking by measuring time spent on licking during phase-2 at equimolar oral dose relative to 10 mg/kg, po indomethacin dosed 1 hr before formalin challenge and measured 30 mins after formalin injection; format: functional
[18] = molecular target: T1, Prostaglandin G/H synthase 1 (Ovis aries, UniProt P05979); assay: Inhibition of ovine COX1 by oxidized TMPD detection based colorimetric assay
T1 sequence (P05979 whole entry): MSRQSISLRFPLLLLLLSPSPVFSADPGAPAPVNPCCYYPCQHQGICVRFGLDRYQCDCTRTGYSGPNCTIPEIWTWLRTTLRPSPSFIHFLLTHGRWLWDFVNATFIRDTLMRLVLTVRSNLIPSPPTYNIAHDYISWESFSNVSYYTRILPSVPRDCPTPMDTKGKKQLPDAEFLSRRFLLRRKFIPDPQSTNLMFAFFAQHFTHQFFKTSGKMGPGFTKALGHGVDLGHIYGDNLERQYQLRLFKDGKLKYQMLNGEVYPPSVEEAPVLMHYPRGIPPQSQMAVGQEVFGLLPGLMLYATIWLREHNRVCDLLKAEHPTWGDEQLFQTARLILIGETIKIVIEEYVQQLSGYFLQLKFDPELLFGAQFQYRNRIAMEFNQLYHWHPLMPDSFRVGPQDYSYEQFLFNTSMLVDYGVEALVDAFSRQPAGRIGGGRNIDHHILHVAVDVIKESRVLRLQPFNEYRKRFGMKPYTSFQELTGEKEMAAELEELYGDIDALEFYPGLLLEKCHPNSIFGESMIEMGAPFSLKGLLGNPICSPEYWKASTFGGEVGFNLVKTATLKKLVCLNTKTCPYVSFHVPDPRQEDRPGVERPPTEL

[19] = Octanol/water partition coefficient, log P of the compound by shake flask method; format: physicochemical
[20] = In-vitro anti-inflammatory activity assessed as inhibition of denaturation of bovine serum albumin at equimolar dose relative to 10 mg indomethacin; format: functional
Rattus norvegicus [21] = assay: Toxicity in healthy albino rat assessed as induction of changes in autonomic or behavioural responses up to 500 mg/kg, po; format: organism-based; details: in vivo
Rattus norvegicus [22] = assay: Toxicity in healthy albino rat assessed as induction of tremors up to 500 mg/kg, po; format: organism-based; details: in vivo
Rattus norvegicus [23] = assay: Toxicity in healthy albino rat assessed as induction of salivation up to 500 mg/kg, po; format: organism-based; details: in vivo
Rattus norvegicus [24] = assay: Toxicity in healthy albino rat assessed as induction of sleep up to 500 mg/kg, po; format: organism-based; details: in vivo
Rattus norvegicus [25] = assay: Toxicity in healthy albino rat assessed as induction of coma up to 500 mg/kg, po; format: organism-based; details: in vivo
Rattus norvegicus [26] = assay: Toxicity in healthy albino rat assessed as induction of mortality at 500 mg/kg, po measured after 14 days; format: organism-based; details: in vivo, 336 h

## COc1ccc(-c2nnc(Cn3nc(-c4ccccc4)c(-c4ccccc4)nc3=O)o2)cc1
Rattus norvegicus [1]
  inhibition (INH): 38.71%
Rattus norvegicus [2]
  inhibition (INH): 48.11%
Rattus norvegicus [3]
  inhibition (INH): 52.67%
Rattus norvegicus [4]
  inhibition (INH): 52.71%
Rattus norvegicus [5]
  inhibition (INH): 88.2%
Rattus norvegicus [6]
  inhibition (INH): 13.71%
Rattus norvegicus [7]
  inhibition (INH): 35.14%
Rattus norvegicus [8]
  inhibition (INH): 41.05%
Rattus norvegicus [9]
  inhibition (INH): 43.46%
Rattus norvegicus [10]
  inhibition (INH): 49.34%
Rattus norvegicus [11]
  Activity: 103.17 U/ml
Rattus norvegicus [12]
  Activity: 22.11 U
Rattus norvegicus [13]
  Activity: 1.87 g/dL
Rattus norvegicus [14]
  Activity: 40.62 mg/dL
Mus musculus [15]
  inhibition (INH): 70.21%
Mus musculus [16]
  inhibition (INH): 10.59%
Mus musculus [17]
  inhibition (INH): 74.38%
[18]
  IC50: 44.9 µM
[19]
  logP: 3.56
[20]
  inhibition: 76.7%
Rattus norvegicus [21]
  Activity: Non-toxic
Rattus norvegicus [22]
  Activity: Non-toxic
Rattus norvegicus [23]
  Activity: Non-toxic
Rattus norvegicus [24]
  Activity: Non-toxic
Rattus norvegicus [25]
  Activity: Non-toxic
Rattus norvegicus [26]
  Activity: Non-toxic
